# PubChem BioAssay (NCI)
#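 These data come from cells grown in 96-well plates and exposed to compound for 48 hours at five concentrations. GI50: concentration for 50% inhibition of growth. TGI: total growth inhibition.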
# What was measured:
# Assay in all cases: inhibition of tumour cell growth, NCI panel, 48 h
# [1] = tested on: SF-295 CNS
# [2] = tested on: CAKI-1 renal
# [3] = tested on: ACHN renal
# [4] = tested on: U251 CNS
# [5] = tested on: NCI-H460 lung
# [6] = tested on: SK-MEL-28 melanoma
# [7] = tested on: NCI-H522 lung
# [8] = tested on: OVCAR-4 ovarian
# [9] = tested on: HOP-62 NSCLC
# [10] = tested on: SN12C renal
# [11] = tested on: SW-620 colon
# [12] = tested on: HS 578T breast
# [13] = tested on: 786-0 renal
# [14] = tested on: A498 renal
# [15] = tested on: SNB-75 CNS
# [16] = tested on: A549 NSCLC
# [17] = tested on: MDA-MB-468 breast
# [18] = tested on: SF-268 CNS
# [19] = tested on: COLO 205 colon
# [20] = tested on: SK-OV-3 ovarian
# [21] = tested on: MALME-3M melanoma
# [22] = tested on: MOLT-4 leukemia
# [23] = tested on: HCC-2998 colon
# [24] = tested on: K-562 leukemia
# [25] = tested on: IGROV1 ovarian
# [26] = tested on: MCF7 breast
# [27] = tested on: OVCAR-5 ovarian
# [28] = tested on: UACC-257 melanoma
# [29] = tested on: RPMI-8226 leukemia
# [30] = tested on: NCI-H23 lung
# [31] = tested on: UACC-62 melanoma
# [32] = tested on: HL-60(TB) leukemia
# [33] = tested on: RXF 393 renal
# [34] = tested on: DU-145 prostate
# [35] = tested on: SF-539 CNS
# [36] = tested on: SNB-19 CNS
# [37] = tested on: EKVX NSCLC
# [38] = tested on: SK-MEL-5 melanoma
# [39] = tested on: T-47D breast
# [40] = tested on: PC-3 prostate
# [41] = tested on: HCT-15 colon
# [42] = tested on: HOP-92 NSCLC
# [43] = tested on: HT29 colon
# [44] = tested on: OVCAR-8 ovarian
# [45] = tested on: OVCAR-3 ovarian
# [46] = tested on: M14 melanoma
# [47] = tested on: SK-MEL-2 melanoma
# [48] = tested on: TK-10 renal
# [49] = tested on: NCI/ADR-RES ovarian
# [50] = tested on: LOX IMVI melanoma
# [51] = tested on: BT-549 breast
# [52] = tested on: HCT-116 colon
# [53] = tested on: NCI-H226 lung
# [54] = tested on: MDA-MB-435
# [55] = tested on: KM12 colon
# [56] = tested on: CCRF-CEM leukemia
# [57] = tested on: UO-31 renal
# [58] = tested on: MDA-MB-231 breast
# [59] = tested on: SR leukemia
structure (smiles),measurement,setting,value
O=C(N/N=C/c1ccc(-c2cccc([N+](=O)[O-])c2)o1)c1[nH]c2ccc(Br)cc2c1-c1ccccc1,GI50,[1],3.17 µM
same,TGI,[1],> 100 µM
same,GI50,[2],30.9 µM
same,TGI,[2],> 100 µM
same,GI50,[3],4.76 µM
same,TGI,[3],> 100 µM
same,GI50,[4],3.34 µM
same,TGI,[4],> 100 µM
same,GI50,[5],3.49 µM
same,TGI,[5],> 100 µM
same,GI50,[6],6.75 µM
same,TGI,[6],> 100 µM
same,GI50,[7],1.73 µM
same,TGI,[7],3.98 µM
same,GI50,[8],> 100 µM
same,TGI,[8],> 100 µM
same,GI50,[9],3.49 µM
same,TGI,[9],> 100 µM
same,GI50,[10],3.99 µM
same,TGI,[10],> 100 µM
same,GI50,[11],4.5 µM
same,TGI,[11],> 100 µM
same,GI50,[12],4.26 µM
same,TGI,[12],> 100 µM
same,GI50,[13],2.75 µM
same,TGI,[13],13.3 µM
same,GI50,[14],> 100 µM
same,TGI,[14],> 100 µM
same,GI50,[15],4.56 µM
same,TGI,[15],> 100 µM
same,GI50,[16],3.66 µM
same,TGI,[16],> 100 µM
same,GI50,[17],2.28 µM
same,TGI,[17],6 µM
same,GI50,[18],5.55 µM
same,TGI,[18],> 100 µM
same,GI50,[19],2.75 µM
same,TGI,[19],7.49 µM
same,GI50,[20],3.61 µM
same,TGI,[20],> 100 µM
same,GI50,[21],3.77 µM
same,TGI,[21],> 100 µM
same,GI50,[22],3.45 µM
same,TGI,[22],> 100 µM
same,GI50,[23],4.63 µM
same,TGI,[23],> 100 µM
same,GI50,[24],3.28 µM
same,TGI,[24],> 100 µM
same,GI50,[25],4.33 µM
same,TGI,[25],> 100 µM
same,GI50,[26],3.56 µM
same,TGI,[26],> 100 µM
same,GI50,[27],3.84 µM
same,TGI,[27],> 100 µM
same,GI50,[28],5.79 µM
same,TGI,[28],> 100 µM
same,GI50,[29],3.31 µM
same,TGI,[29],> 100 µM
same,GI50,[30],4.87 µM
same,TGI,[30],> 100 µM
same,GI50,[31],4.46 µM
same,TGI,[31],> 100 µM
same,GI50,[32],1.94 µM
same,TGI,[32],5.32 µM
same,GI50,[33],2.65 µM
same,TGI,[33],7.45 µM
same,GI50,[34],4.2 µM
same,TGI,[34],> 100 µM
same,GI50,[35],2.34 µM
same,TGI,[35],5.81 µM
same,GI50,[36],3.48 µM
same,TGI,[36],> 100 µM
same,GI50,[37],5.74 µM
same,TGI,[37],> 100 µM
same,GI50,[38],2.22 µM
same,TGI,[38],5.34 µM
same,GI50,[39],> 100 µM
same,TGI,[39],> 100 µM
same,GI50,[40],4.28 µM
same,TGI,[40],> 100 µM
same,GI50,[41],3.59 µM
same,TGI,[41],> 100 µM
same,GI50,[42],46.1 µM
same,TGI,[42],> 100 µM
same,GI50,[43],2.58 µM
same,TGI,[43],6.97 µM
same,GI50,[44],2.44 µM
same,TGI,[44],5.5 µM
same,GI50,[45],3.47 µM
same,TGI,[45],> 100 µM
same,GI50,[46],3.43 µM
same,TGI,[46],> 100 µM
same,GI50,[47],2.68 µM
same,TGI,[47],8.93 µM
same,GI50,[48],> 100 µM
same,TGI,[48],> 100 µM
same,GI50,[49],2.53 µM
same,TGI,[49],6.49 µM
same,GI50,[50],3.71 µM
same,TGI,[50],> 100 µM
same,GI50,[51],2.16 µM
same,TGI,[51],6.28 µM
same,GI50,[52],3.04 µM
same,TGI,[52],10.4 µM
same,GI50,[53],23.5 µM
same,TGI,[53],> 100 µM
same,GI50,[54],3.2 µM
same,TGI,[54],> 100 µM
same,GI50,[55],3.75 µM
same,TGI,[55],> 100 µM
Cc1cc(C(NC(=O)CCCCCNc2cccc3c2C(=O)N(C2CCC(=O)CC2=O)C3=O)c2cccc(N(C)C)c2)c(O)c2ncccc12 (centres undefined),GI50,[1],1.53 µM
same,TGI,[1],> 58.5 µM
same,GI50,[2],1.14 µM
same,TGI,[2],> 58.5 µM
same,GI50,[3],1.92 µM
same,TGI,[3],> 58.5 µM
same,GI50,[4],1.39 µM
same,TGI,[4],> 58.5 µM
same,GI50,[5],1.14 µM
same,TGI,[5],> 58.5 µM
same,GI50,[6],2.06 µM
same,TGI,[6],> 58.5 µM
same,GI50,[7],1.8 µM
same,TGI,[7],> 58.5 µM
same,GI50,[8],1.48 µM
same,TGI,[8],> 58.5 µM
same,GI50,[9],0.547 µM
same,TGI,[9],> 12.6 µM
same,GI50,[10],1.21 µM
same,TGI,[10],> 58.5 µM
same,GI50,[11],0.564 µM
same,TGI,[11],> 58.5 µM
same,GI50,[12],0.482 µM
same,TGI,[12],> 58.5 µM
same,GI50,[13],1.36 µM
same,TGI,[13],> 58.5 µM
same,GI50,[15],0.766 µM
same,TGI,[15],> 58.5 µM
same,GI50,[16],2.12 µM
same,TGI,[16],> 58.5 µM
same,GI50,[17],0.0278 µM
same,TGI,[17],0.462 µM
same,GI50,[18],1.41 µM
same,TGI,[18],> 58.5 µM
same,GI50,[19],1.08 µM
same,TGI,[19],> 58.5 µM
same,GI50,[20],1.53 µM
same,TGI,[20],5.02 µM
same,GI50,[21],0.0975 µM
same,TGI,[21],0.957 µM
same,GI50,[22],0.0346 µM
same,TGI,[22],> 58.5 µM
same,GI50,[23],0.941 µM
same,TGI,[23],3.76 µM
same,GI50,[24],0.824 µM
same,TGI,[24],> 58.5 µM
same,GI50,[25],0.686 µM
same,TGI,[25],6.17 µM
same,GI50,[26],0.982 µM
same,TGI,[26],> 58.5 µM
same,GI50,[27],1.9 µM
same,TGI,[27],> 58.5 µM
same,GI50,[28],2.45 µM
same,TGI,[28],> 58.5 µM
same,GI50,[29],1.58 µM
same,TGI,[29],> 58.5 µM
same,GI50,[30],1.54 µM
same,TGI,[30],> 58.5 µM
same,GI50,[31],1.33 µM
same,TGI,[31],4.63 µM
same,GI50,[32],0.0199 µM
same,TGI,[32],1.67 µM
same,GI50,[33],1.55 µM
same,TGI,[33],> 58.5 µM
same,GI50,[34],3.03 µM
same,TGI,[34],> 58.5 µM
same,GI50,[35],1.83 µM
same,TGI,[35],30.8 µM
same,GI50,[36],1.56 µM
same,TGI,[36],> 58.5 µM
same,GI50,[37],1.36 µM
same,TGI,[37],> 58.5 µM
same,GI50,[38],0.822 µM
same,TGI,[38],1.83 µM
same,GI50,[39],0.739 µM
same,TGI,[39],> 58.5 µM
same,GI50,[56],0.0268 µM
same,TGI,[56],1.36 µM
same,GI50,[40],0.103 µM
same,TGI,[40],> 58.5 µM
same,GI50,[41],0.91 µM
same,TGI,[41],> 58.5 µM
same,GI50,[42],0.0365 µM
same,TGI,[42],0.524 µM
same,GI50,[43],2.36 µM
same,TGI,[43],> 58.5 µM
same,GI50,[44],0.555 µM
same,TGI,[44],> 58.5 µM
same,GI50,[45],1.23 µM
same,TGI,[45],> 58.5 µM
same,GI50,[46],0.585 µM
same,TGI,[46],3.78 µM
same,GI50,[48],2.67 µM
same,TGI,[48],> 58.5 µM
same,GI50,[49],5.44 µM
same,TGI,[49],> 58.5 µM
same,GI50,[50],1.2 µM
same,TGI,[50],> 16.1 µM
same,GI50,[51],0.0851 µM
same,TGI,[51],0.93 µM
same,GI50,[52],0.932 µM
same,TGI,[52],> 58.5 µM
same,GI50,[57],0.745 µM
same,TGI,[57],> 25.4 µM
same,GI50,[53],0.782 µM
same,TGI,[53],> 15.8 µM
same,GI50,[54],2.22 µM
same,TGI,[54],> 58.5 µM
same,GI50,[55],1.73 µM
same,TGI,[55],> 58.5 µM
same,GI50,[58],0.0222 µM
same,TGI,[58],0.136 µM
same,GI50,[59],0.922 µM
same,TGI,[59],> 58.5 µM
